Results reported in patent US6770599B2, “Tetrazole derivatives” (Bayer CropScience KK, priority 2000, dated 2004).

Tests used:
[1] = system: Lindernia pyridaria (flasepimpernel); assay: Test Example 5: synergistic action by water surface application, LIDPY; format: in vivo; conditions: 75 g a.i./ha, run6, 4 weeks after application
Text: (§1) Test for Synergistic Action by Water Sureface Application
(§2) In a greenhouse, paddy soil was filled in pots (250 cm^2), and seeds of weed (barnyardgrass, bulrush, monochoria, falsepimpemel, indian toothcup, waterwort and flatstage) were inoculated in the surface layer of the soil in the pots under wet conditions and covered with soil. All of the weed species were individually inoculated in each pot. Each pot was watered to 2 cm in depth and the depth was kept during the test period. When the weeds grew up to 1.5-2.2 leaf stage (or pair), a predetermined amount of the compound as a testing solution prepared in the same manner as the above-mentioned Test Example 4 was applied to the pots by water surface treatment method. The herbicidal effect was evaluated at 4 weeks after the application on the same scale as in thetest method of Test Example 4.
(§3) Synergistic action of Test Example 4 and Test Example 5 were evaluated by Colby's equation. [formula]
(§4) E: expected herbicidal activity at p+q g/ha
(§5) X: the percentage of herbicidal activity at p g/ha
(§6) Y: the percentage of herbicidal activity at q g/ha

[2] = system: Rotala indica (indian toothcup); assay: Test Example 5: synergistic action by water surface application, ROTIN; format: in vivo; conditions: 75 g a.i./ha, run6, 4 weeks after application
Text: as §1, §2, §3, §4, §5, §6

| melting point [°C] | SMILES | Herbicidal efficacy, known herbicide [1] [%] | Herbicidal efficacy, known herbicide [2] [%] |
| --- | --- | --- | --- |
| 67 to 71 | CCn1nnnc1SCc1c(S(C)(=O)=O)ccc(C(=O)C2C(=O)CCCC2=O)c1Cl | – | – |
| 76 to 87 | Cn1nnnc1SCc1c(S(C)(=O)=O)ccc(C(=O)C2=C(Sc3ccccc3)CCCC2=O)c1Cl | – | – |
| – | CCC1(CC2(c3cccc(Cl)c3)CO2)C(=O)c2ccccc2C1=O (racemic) [G, (RS)-2-[2-(3-chlorophenyl)2,3-epoxypropyl]-2-ethylindan-1,3-dione] | 60 | 60 |
